Where “and” joins values, the source holds several entries; their conditions need not be identical. Equal entries are not always repeated.
What was measured:
PctA-LBD = biological target: T1, PctA-LBD (Pseudomonas aeruginosa, UniProt G3XD24); assay: ITC binding to PctA-LBD; set-up: species or system P. aeruginosa; details: 700 μM DPD/AI-2 into 70 μM PctA-LBD (WT); 20 °C; normal conditions; mean ± s.d. of three in text/figure, single experiments in source data
T1 construct: Amino acids 30-278 and 36-360 of PctA and TlpQ, respectively; His6 (N, cleaved yes); made in house; host or cells: E. coli BL21(DE3) (pET-28a derivative)
T1 sequence (G3XD24 30-278): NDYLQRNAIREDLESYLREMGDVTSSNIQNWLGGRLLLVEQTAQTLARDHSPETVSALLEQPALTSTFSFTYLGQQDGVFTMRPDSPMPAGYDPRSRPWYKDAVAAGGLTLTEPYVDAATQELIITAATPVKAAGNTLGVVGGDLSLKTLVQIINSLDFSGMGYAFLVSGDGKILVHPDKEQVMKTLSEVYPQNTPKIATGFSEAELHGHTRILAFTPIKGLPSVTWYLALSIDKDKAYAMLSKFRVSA

rpHK1S-Z16-LBD = rpHK1S-Z16-LBD (Rhodopseudomonas palustris, UniProt Q6N3S7); assay: ITC binding to rpHK1S-Z16-LBD; set-up: species or system R. palustris; details: 700 μM DPD/AI-2 into 70 μM rpHK1S-Z16-LBD
Chain of rpHK1S-Z16-LBD (Q6N3S7 entry or part of it): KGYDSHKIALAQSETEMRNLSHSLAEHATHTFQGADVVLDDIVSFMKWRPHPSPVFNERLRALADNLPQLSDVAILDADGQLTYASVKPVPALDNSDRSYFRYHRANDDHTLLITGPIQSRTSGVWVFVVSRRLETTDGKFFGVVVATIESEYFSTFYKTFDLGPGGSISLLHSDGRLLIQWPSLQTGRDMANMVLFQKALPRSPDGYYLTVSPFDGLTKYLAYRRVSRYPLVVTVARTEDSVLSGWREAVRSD

PctC-LBDF147Y = biological target: T2, PctC-LBDF147Y (Pseudomonas aeruginosa, UniProt Q9HW93, F147Y); assay: biochemical; assay type: binding; details: 700 μM DPD/AI-2 into 70 μM PctC-LBD F147Y
T2 construct: the dCACHE-type LBDs of PctB and PctC; His6 (N, cleaved yes); made in house; host or cells: E. coli BL21(DE3) (pET-28a derivative)
T2 sequence (Q9HW93 32-279 F147Y): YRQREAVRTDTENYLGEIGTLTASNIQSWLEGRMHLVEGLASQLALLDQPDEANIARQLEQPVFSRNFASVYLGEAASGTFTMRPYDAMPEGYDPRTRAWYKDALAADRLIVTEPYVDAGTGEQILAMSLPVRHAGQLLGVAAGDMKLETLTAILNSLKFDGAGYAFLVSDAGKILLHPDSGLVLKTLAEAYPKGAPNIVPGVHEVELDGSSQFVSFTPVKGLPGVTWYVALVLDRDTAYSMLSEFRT

PctA-LBD A147F = biological target: T3, PctA-LBD A147F (Pseudomonas aeruginosa, UniProt G3XD24, A147F); assay: biochemical; assay type: binding; details: PctA-LBD A147F 70 μM; DPD/AI-2 700 μM
T3 construct: Amino acids 30-278 and 36-360 of PctA and TlpQ, respectively; His6 (N, cleaved yes); made in house; host or cells: E. coli BL21(DE3) (pET-28a derivative)
T3 sequence (G3XD24 30-278 A147F): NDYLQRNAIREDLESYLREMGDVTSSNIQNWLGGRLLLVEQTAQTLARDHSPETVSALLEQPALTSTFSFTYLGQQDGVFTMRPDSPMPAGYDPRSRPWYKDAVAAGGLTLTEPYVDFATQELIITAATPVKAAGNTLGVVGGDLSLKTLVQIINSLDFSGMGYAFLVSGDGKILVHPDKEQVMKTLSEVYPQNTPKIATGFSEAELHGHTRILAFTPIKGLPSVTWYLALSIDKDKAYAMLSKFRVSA

PctC-LBD = PctC-LBD (Pseudomonas aeruginosa, UniProt Q9HW93); assay: ITC binding to PctC-LBD; details: 700 μM DPD/AI-2 into 70 μM PctC-LBD, minor heats, not certain whether they reflect binding
Chain of PctC-LBD (Q9HW93 32-279): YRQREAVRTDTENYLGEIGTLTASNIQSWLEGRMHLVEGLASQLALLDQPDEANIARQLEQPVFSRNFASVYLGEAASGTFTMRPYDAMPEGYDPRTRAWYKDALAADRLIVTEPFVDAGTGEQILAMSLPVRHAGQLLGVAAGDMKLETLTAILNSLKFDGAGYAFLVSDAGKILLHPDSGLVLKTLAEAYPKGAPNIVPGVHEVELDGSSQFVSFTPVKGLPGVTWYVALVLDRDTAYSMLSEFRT
Description: ITC experiments were performed at 20 °C using a Nano ITC Standard Volume isothermal calorimeter (TA Instruments, New Castle, DE). […] The stirring speed was 200 r.p.m. and 25 injections were used each experiment. Three independent experiments were performed for each sample. […] ITC data were analyzed and fit with a one-site independent binding model using the NanoAnalyze software version 3.4 provided by the manufacturer, with the heat of dilution subtracted from the experimental titrations before data analysis.

P. aeruginosa PAO1 = assay: crystal violet quantification of biofilm formation; details: 100 nM DPD/AI-2, 37 °C, 48 h
Description: Biofilms were stained with crystal violet and quantified using optical density measurement after incubation at 37 °C for 48 h. Data are mean ± s.e.m. of five independent experiments. b Quantification of biofilm formation by P. aeruginosa strains from confocal imaging. […] Images were reconstructed using the Imaris 9.0 software package (Bitplane, AG) (Supplementary Fig. 6) and biofilm biovolumes were quantified using COMSTAT (www.comstat.dk). Biovolumes were calculated from three biological replicates and each biological replicate was derived from an average of five confocal images.
For crystal violet quantification of biofilm formation, overnight cultures of relevant strains of P. aeruginosa were diluted with TSB medium to an OD600 of 0.05, and 190 μl aliquots of the diluted cells were inoculated into each well of a 96-well microtiter plate (cat# 220400, Zhejiang Sorfa Life Science Research Co., Ltd., China). […] After incubation at 37 °C for 48 h without shaking, culture supernatant was removed and the wells were washed twice with phosphate-buffered saline (PBS). Cells adhering to the wells were stained with 0.1% (w/v) crystal violet for 15 min and then washed three times with PBS. The bacteria-bound dye was dissolved in 200 μl of 95% ethanol and the absorbance was determined at 590 nm.

CC(=O)C(=O)C(O)CO (stereo not drawn) [DPD/AI-2, 4,5-dihydroxy-2,3-pentanedione]
Kd (PctA-LBD): 120 nM and 160 nM and 130 nM
Kd (rpHK1S-Z16-LBD): 130 nM and 190 nM and 210 nM
Kd (PctC-LBDF147Y): 240 nM and 170 nM and 210 nM
Kd (PctA-LBD A147F): 11000 nM and 10000 nM and 12000 nM
Kd (PctC-LBD): 94000 nM and 118000 nM and 86000 nM
OD590 (crystal violet biofilm) (P. aeruginosa PAO1; strain WT(Vector)): 3.71 and 3.92 and 4.21 and 4.32 and 4.12
OD590 (crystal violet biofilm) (P. aeruginosa PAO1; strain ΔpctA(Vector)): 2.92 and 3.14 and 3.21 and 2.99 and 3.31
OD590 (crystal violet biofilm) (P. aeruginosa PAO1; strain ΔpctAΔtlpQ(Vector)): 2.53 and 2.64 and 2.49 and 2.62 and 2.12
OD590 (crystal violet biofilm) (P. aeruginosa PAO1; strain ΔpctAΔtlpQ(pctA)): 3.05 and 3.43 and 3.56 and 3.32 and 3.18
OD590 (crystal violet biofilm) (P. aeruginosa PAO1; strain ΔpctAΔtlpQ(pctB)): 2.31 and 2.73 and 2.24 and 2.53 and 2.77
OD590 (crystal violet biofilm) (P. aeruginosa PAO1; strain ΔpctAΔtlpQ(tlpQ)): 3.41 and 3.66 and 3.44 and 3.21 and 3.40
OD590 (crystal violet biofilm) (P. aeruginosa PAO1; strain ΔtlpQ(Vector)): 3.21 and 3.31 and 3.58 and 3.67 and 3.42

Reference: PMC7584622, “Sensing of autoinducer-2 by functionally distinct receptors in prokaryotes” (Nature Communications, 2020)
